Structures can show the parent of a compound that is named as a salt.
Experiments:
NK1 = NK1 (Homo sapiens, UniProt P25103); experiment: Signal transduction (ST), intracellular Ca++ (FLIPR), functional NK1 antagonistic activity; type: cell-based; details: antagonist, read-out: NK1 pIC50 (converted)
Outline: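 Confluent cells were loaded with 2 μM Fluo3 for 1 h at 37° C, then washed into Krebs buffer pH 7.4 with 1.25 mM CaCl2 and 2.5 mM probenecid. Antagonists were preincubated 20 min at RT before agonist addition. Peak Ca++ transients were read by FLIPR, with EC50 or IC50 from sigmoidal non-linear regression.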

NK2 = molecular target: T1, NK2 (Homo sapiens, UniProt P21452); experiment: Signal transduction (ST), intracellular Ca++ (FLIPR), NK2; type: cell-based; details: antagonist, read-out: NK2 pIC50 (converted)
T1 sequence (P21452 1-398): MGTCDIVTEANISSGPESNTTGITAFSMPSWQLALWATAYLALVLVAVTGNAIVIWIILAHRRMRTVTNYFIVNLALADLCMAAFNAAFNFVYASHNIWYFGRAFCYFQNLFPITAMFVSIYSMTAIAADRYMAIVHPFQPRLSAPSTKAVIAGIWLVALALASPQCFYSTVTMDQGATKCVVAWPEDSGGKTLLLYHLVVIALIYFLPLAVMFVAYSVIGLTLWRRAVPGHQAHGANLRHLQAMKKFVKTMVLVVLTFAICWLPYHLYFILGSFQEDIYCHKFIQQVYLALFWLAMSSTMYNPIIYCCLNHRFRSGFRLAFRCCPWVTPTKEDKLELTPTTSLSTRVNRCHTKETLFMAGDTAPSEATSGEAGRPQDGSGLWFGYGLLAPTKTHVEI

NK3 = molecular target: T2, NK3 (Homo sapiens, UniProt P29371); experiment: Signal transduction (ST), intracellular Ca++ (FLIPR), NK3; type: cell-based; details: antagonist, read-out: NK3 pIC50 (converted)
T2 sequence (P29371 1-465): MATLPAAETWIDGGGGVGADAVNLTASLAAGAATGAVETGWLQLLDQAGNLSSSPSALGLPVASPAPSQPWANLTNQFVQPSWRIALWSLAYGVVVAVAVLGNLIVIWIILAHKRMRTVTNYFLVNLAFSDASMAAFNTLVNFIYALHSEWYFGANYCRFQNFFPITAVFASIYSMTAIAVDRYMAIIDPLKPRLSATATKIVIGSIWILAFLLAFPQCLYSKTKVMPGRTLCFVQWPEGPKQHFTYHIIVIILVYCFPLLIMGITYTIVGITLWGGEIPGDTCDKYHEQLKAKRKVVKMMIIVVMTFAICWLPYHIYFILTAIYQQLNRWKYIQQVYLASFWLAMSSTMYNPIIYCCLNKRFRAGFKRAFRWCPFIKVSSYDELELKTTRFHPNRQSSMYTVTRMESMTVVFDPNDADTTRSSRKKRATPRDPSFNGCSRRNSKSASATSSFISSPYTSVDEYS

Chain of NK1 (P25103 whole entry): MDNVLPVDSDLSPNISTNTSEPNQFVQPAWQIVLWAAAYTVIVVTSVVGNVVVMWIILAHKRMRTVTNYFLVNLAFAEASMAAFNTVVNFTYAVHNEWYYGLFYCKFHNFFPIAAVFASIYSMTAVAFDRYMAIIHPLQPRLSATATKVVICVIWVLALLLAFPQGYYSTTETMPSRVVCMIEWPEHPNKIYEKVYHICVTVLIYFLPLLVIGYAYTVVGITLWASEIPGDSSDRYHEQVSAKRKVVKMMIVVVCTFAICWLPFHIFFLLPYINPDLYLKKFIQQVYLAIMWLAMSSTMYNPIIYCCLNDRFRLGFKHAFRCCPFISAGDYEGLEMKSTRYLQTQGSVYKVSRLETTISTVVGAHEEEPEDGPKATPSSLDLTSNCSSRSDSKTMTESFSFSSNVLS

melting point [°C]	IC50 (NK1) [nM]	IC50 (NK2) [nM]	IC50 (NK3) [nM]	Structure (SMILES)
80				CC(C)(C)OC(=O)N1CCC2(CC1)CCN(C1CCN(C(=O)c3cc(C(F)(F)F)cc(C(F)(F)F)c3)C(Cc3ccc(Cl)c(Cl)c3)C1)CC2 (stereo not shown) [Compound 130]
183				O=C(c1cc(C(F)(F)F)cc(C(F)(F)F)c1)N1CCC(N2CCC3(CCN(Cc4ccccc4)CC3)CC2)CC1Cc1ccccc1 (stereo not shown) (as salt: hydrochloric acid salt) [Compound 5]
132				O=C(c1cc(C(F)(F)F)cc(C(F)(F)F)c1)N1CCC(N2CCC3(CC2)CCN(S(=O)(=O)c2cccs2)CC3)CC1Cc1ccccc1 (stereo not shown) (as salt: oxalate) [Compound 92]
160	37.2	1100	1510	O=C(C1CC1)N1CCC2(CC1)CCN(C1CCN(C(=O)c3cc(C(F)(F)F)cc(C(F)(F)F)c3)C(Cc3ccccc3)C1)CC2 (stereo not shown) [Compound 3]
	30.9	~1620	> 10000	O=C(C1CC1)N1CCCC2(CCN([C@@H]3CCN(C(=O)c4cc(C(F)(F)F)cc(C(F)(F)F)c4)[C@H](Cc4ccccc4)C3)CC2)C1 [Compound 173]
	61.7	8910	9330	O=C(c1ccccc1Cl)N1CCC2(CC1)CCN([C@H]1CCN(C(=O)c3cc(C(F)(F)F)cc(C(F)(F)F)c3)[C@H](Cc3ccccc3)C1)CC2 [Compound 42]
	115	5250	> 10000	O=C(Cc1ccc2c(c1)OCO2)N1CCC2(CC1)CCN([C@H]1CCN(C(=O)c3cc(C(F)(F)F)cc(C(F)(F)F)c3)[C@H](Cc3ccccc3)C1)CC2 [Compound 81]
	191	2880	6460	O=C1CC2(CCN1CC1CCC1)CCN([C@@H]1CCN(C(=O)c3cc(C(F)(F)F)cc(C(F)(F)F)c3)[C@H](Cc3ccccc3)C1)CC2 [Compound 197]
	112	> 10000	1320	O=C(c1ccoc1)N1CCC2(CC1)CCN([C@H]1CCN(C(=O)c3cc(C(F)(F)F)cc(C(F)(F)F)c3)[C@H](Cc3ccccc3)C1)CC2 [Compound 24]
	58.9	> 10000	> 10000	O=C(C1CC1)N1CCC2(CCN(C[C@H]3CCN(C(=O)c4cc(C(F)(F)F)cc(C(F)(F)F)c4)[C@H](Cc4ccccc4)C3)CC2)CC1 [Compound 179]
	33.9	7080	> 10000	CC(C)(C)OC(=O)N1CCCC1C(=O)N1CCC2(CCN(C[C@H]3CCN(C(=O)c4cc(C(F)(F)F)cc(C(F)(F)F)c4)[C@H](Cc4ccccc4)C3)CC2)CC1 (stereo partly shown) [Compound 181]
	33.1	3390	3980	O=C(c1cc(C(F)(F)F)cc(C(F)(F)F)c1)N1CC[C@H](N2CCC3(CC2)CCN(S(=O)(=O)Cc2ccccc2)CC3)C[C@H]1Cc1ccccc1 [Compound 126]
	50.1	2510	1510	Cc1ccccc1S(=O)(=O)N1CCC2(CCN([C@H]3CCN(C(=O)c4cc(C(F)(F)F)cc(C(F)(F)F)c4)[C@H](Cc4ccccc4)C3)CC2)CC1 [Compound 103]
	158	5130	6920	CS(=O)(=O)c1ccccc1S(=O)(=O)N1CCC2(CCN([C@H]3CCN(C(=O)c4cc(C(F)(F)F)cc(C(F)(F)F)c4)[C@H](Cc4ccccc4)C3)CC2)CC1 [Compound 125]
	72.4	~6460	> 10000	O=C(c1ccco1)N1CCCC2(CCN([C@H]3CCN(C(=O)c4cc(C(F)(F)F)cc(C(F)(F)F)c4)[C@H](Cc4ccccc4)C3)CC2)C1 [Compound 176]
	661	3390	> 10000	O=C1CC2(CCN1Cc1ccccc1F)CCN([C@@H]1CCN(C(=O)c3cc(C(F)(F)F)cc(C(F)(F)F)c3)[C@H](Cc3ccccc3)C1)CC2 [Compound 203]
	129	3160	7940	CC1CC1C(=O)N1CCC2(CC1)CCN([C@H]1CCN(C(=O)c3cc(C(F)(F)F)cc(C(F)(F)F)c3)[C@H](Cc3ccccc3)C1)CC2 (stereo partly shown) [Compound 15]
	339	4790	> 10000	O=C1CC2(CCN1Cc1ccoc1)CCN([C@@H]1CCN(C(=O)c3cc(C(F)(F)F)cc(C(F)(F)F)c3)[C@H](Cc3ccccc3)C1)CC2 [Compound 198]
	66.1	1070	1580	N#Cc1ccc(S(=O)(=O)N2CCC3(CCN(C4CCN(C(=O)c5cc(C(F)(F)F)cc(C(F)(F)F)c5)C(Cc5ccccc5)C4)CC3)CC2)cc1 (stereo not shown) [Compound 119]
	347	2630	4270	O=C(C1CC1)N1CCCC2(CCCN([C@H]3CCN(C(=O)c4cc(C(F)(F)F)cc(C(F)(F)F)c4)[C@H](Cc4ccccc4)C3)C2)C1 (stereo partly shown) [Compound 208]
	17	1320	339	O=C(c1cc(C(F)(F)F)cc(C(F)(F)F)c1)N1CCC(N2CCC3(CC2)CCN(S(=O)(=O)c2cccs2)CC3)CC1Cc1ccccc1 (stereo not shown) [Compound 92]
	324	2630	3980	O=C(c1cc(C(F)(F)F)cc(C(F)(F)F)c1)N1CC[C@H](N2CCC3(CC2)CCN(S(=O)(=O)c2ccc(Cl)cc2)CC3)C[C@H]1Cc1ccccc1 [Compound 108]
	46.8	2000	8910	O=C1OC(CC(=O)N2CCC3(CC2)CCN([C@H]2CCN(C(=O)c4cc(C(F)(F)F)cc(C(F)(F)F)c4)[C@H](Cc4ccccc4)C2)CC3)c2ccccc21 (stereo partly shown) [Compound 82]
	437	7940	> 10000	O=C(c1ccc2c(c1)OCO2)N1CCC2(CC1)CCN([C@@H]1CCN(C(=O)c3cc(C(F)(F)F)cc(C(F)(F)F)c3)[C@H](Cc3ccccc3)C1)CC2 [Compound 63]
	87.1	1380	4370	O=C(c1cc(C(F)(F)F)cc(C(F)(F)F)c1)N1CC[C@H](N2CCC3(CC2)CCN(S(=O)(=O)C(F)(F)F)CC3)C[C@H]1Cc1ccccc1 [Compound 91]
